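Where inhibition never reached the appropriate level, the endpoint shown equals the highest concentration tested. Otherwise, values were interpolated linearly from a five-concentration, 48-hour dose response in 96-well plates. At the GI50, growth is halved. Definition used: TGI = concentration required for complete inhibition of growth.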
Key:
Experiment in all cases: NCI anticancer screen, dose series, 48 h
786-0 renal = system: 786-0 renal
M14 melanoma = system: M14 melanoma
HOP-62 NSCLC = system: HOP-62 NSCLC
LOX IMVI melanoma = system: LOX IMVI melanoma
SK-MEL-2 melanoma = system: SK-MEL-2 melanoma
CCRF-CEM leukemia = system: CCRF-CEM leukemia
UACC-62 melanoma = system: UACC-62 melanoma
HCT-15 colon = system: HCT-15 colon
NCI-H226 lung = system: NCI-H226 lung
SN12C renal = system: SN12C renal
HL-60(TB) leukemia = system: HL-60(TB) leukemia
A498 renal = system: A498 renal
TK-10 renal = system: TK-10 renal
UO-31 renal = system: UO-31 renal
NCI/ADR-RES ovarian = system: NCI/ADR-RES ovarian
UACC-257 melanoma = system: UACC-257 melanoma
KM12 colon = system: KM12 colon
SK-OV-3 ovarian = system: SK-OV-3 ovarian
A549 NSCLC = system: A549 NSCLC
RPMI-8226 leukemia = system: RPMI-8226 leukemia
BT-549 breast = system: BT-549 breast
MDA-MB-435 = system: MDA-MB-435
HS 578T breast = system: HS 578T breast
SNB-19 CNS = system: SNB-19 CNS
OVCAR-4 ovarian = system: OVCAR-4 ovarian
NCI-H23 lung = system: NCI-H23 lung
OVCAR-5 ovarian = system: OVCAR-5 ovarian
MDA-MB-231 breast = system: MDA-MB-231 breast
MOLT-4 leukemia = system: MOLT-4 leukemia
RXF 393 renal = system: RXF 393 renal

CCCCNC(=S)Nc1ccc(OCc2nc3ccc(Cl)cc3[nH]2)cc1
TGI (786-0 renal): 10.1 µM
GI50 (M14 melanoma): 11.3 µM
TGI (M14 melanoma): 26.8 µM
GI50 (HOP-62 NSCLC): 13.9 µM
TGI (HOP-62 NSCLC): 27.3 µM
GI50 (LOX IMVI melanoma): 3.41 µM
TGI (LOX IMVI melanoma): 16.2 µM
GI50 (SK-MEL-2 melanoma): 13.1 µM
TGI (SK-MEL-2 melanoma): 26.3 µM
GI50 (CCRF-CEM leukemia): 3.16 µM
TGI (CCRF-CEM leukemia): 12.4 µM
GI50 (UACC-62 melanoma): 9.83 µM
TGI (UACC-62 melanoma): 21.7 µM
GI50 (HCT-15 colon): 4.59 µM
TGI (HCT-15 colon): 17.9 µM
GI50 (NCI-H226 lung): 9.57 µM
TGI (NCI-H226 lung): 26.4 µM
GI50 (SN12C renal): 10.5 µM
TGI (SN12C renal): 22.9 µM
GI50 (HL-60(TB) leukemia): 1.8 µM
TGI (HL-60(TB) leukemia): 9.66 µM
GI50 (A498 renal): 12.1 µM
TGI (A498 renal): 24.9 µM
GI50 (TK-10 renal): 13.1 µM
TGI (TK-10 renal): 26.2 µM
GI50 (UO-31 renal): 3.46 µM
TGI (UO-31 renal): 16.2 µM
GI50 (NCI/ADR-RES ovarian): 5.73 µM
TGI (NCI/ADR-RES ovarian): 23.4 µM
GI50 (UACC-257 melanoma): 11.5 µM
TGI (UACC-257 melanoma): 24.1 µM
GI50 (KM12 colon): 14 µM
TGI (KM12 colon): 28.9 µM
GI50 (SK-OV-3 ovarian): 14.8 µM
TGI (SK-OV-3 ovarian): 28.6 µM
GI50 (A549 NSCLC): 12.2 µM
TGI (A549 NSCLC): 26.7 µM
GI50 (RPMI-8226 leukemia): 3.83 µM
TGI (RPMI-8226 leukemia): 30.3 µM
GI50 (BT-549 breast): 9.98 µM
TGI (BT-549 breast): 22.4 µM
GI50 (MDA-MB-435): 10.1 µM
TGI (MDA-MB-435): 22.2 µM
GI50 (HS 578T breast): 10.7 µM
TGI (HS 578T breast): 38.6 µM
GI50 (SNB-19 CNS): 12.8 µM
TGI (SNB-19 CNS): 25.4 µM
GI50 (OVCAR-4 ovarian): 7.67 µM
TGI (OVCAR-4 ovarian): 21.5 µM
GI50 (NCI-H23 lung): 10.5 µM
TGI (NCI-H23 lung): 23.5 µM
GI50 (OVCAR-5 ovarian): 13 µM
TGI (OVCAR-5 ovarian): 25.6 µM
GI50 (MDA-MB-231 breast): 9.9 µM
TGI (MDA-MB-231 breast): 22.1 µM
GI50 (MOLT-4 leukemia): 3.23 µM
TGI (MOLT-4 leukemia): 13.3 µM
GI50 (RXF 393 renal): 3.82 µM
TGI (RXF 393 renal): 16.2 µM
